Toxic doses and inconclusive results are not listed. Cut-off read from the data, not from the text of the source: active = T/C of 150% or more; inactive = T/C below 125%.
Tested on: L1210 leukemia ip in BDF1 mice, survival T/C
Test: NCI In Vivo Anticancer Drug Screen. Data for tumor model L1210 Leukemia (intraperitoneal) in B6D2F1 (BDF1) mice
Conditions: higher = longer survival
Outline: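 Value reflects the ratio of survival in compound-treated mice to survival in vehicle-treated controls, with both groups carrying the same transplanted tumor.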

[1] = endpoint: mean survival time, dose: 100.0 mg/kg/injection, schedule: Q04DX003 (ip), vehicle: saline with Tween-80
[2] = endpoint: mean survival time, dose: 200.0 mg/kg/injection, schedule: Q04DX003 (ip), vehicle: saline with Tween-80
[3] = endpoint: mean survival time, dose: 400.0 mg/kg/injection, schedule: Q04DX003 (ip), vehicle: saline with Tween-80
[4] = endpoint: mean survival time, dose: 100.0 mg/kg/injection, schedule: Q01DX009 (ip), vehicle: Klucel (hydroxypropylcellulose) (HPC)
[5] = endpoint: mean survival time, dose: 100.0 mg/kg/injection, schedule: Q04DX003 (ip), vehicle: Klucel (hydroxypropylcellulose) (HPC)
[6] = endpoint: mean survival time, dose: 200.0 mg/kg/injection, schedule: Q01DX009 (ip), vehicle: Klucel (hydroxypropylcellulose) (HPC)
[7] = endpoint: mean survival time, dose: 200.0 mg/kg/injection, schedule: Q04DX003 (ip), vehicle: Klucel (hydroxypropylcellulose) (HPC)
[8] = endpoint: mean survival time, dose: 400.0 mg/kg/injection, schedule: Q01DX009 (ip), vehicle: Klucel (hydroxypropylcellulose) (HPC)
[9] = endpoint: mean survival time, dose: 400.0 mg/kg/injection, schedule: Q04DX003 (ip), vehicle: Klucel (hydroxypropylcellulose) (HPC)
[10] = endpoint: mean survival time, dose: 100.0 mg/kg/injection, schedule: Q01DX001 (ip), vehicle: saline
[11] = endpoint: mean survival time, dose: 200.0 mg/kg/injection, schedule: Q01DX001 (ip), vehicle: saline
[12] = endpoint: mean survival time, dose: 400.0 mg/kg/injection, schedule: Q01DX001 (ip), vehicle: saline

Measured: T/C

CC(=O)OC1C=CS(=O)(=O)C1 (stereo unspecified)
inactive: endpoint: mean survival time, dose: 100.0 mg/kg/injection, schedule: Q01DX009 (ip), vehicle: saline with Tween-80 94 % of control | endpoint: mean survival time, dose: 200.0 mg/kg/injection, schedule: Q01DX009 (ip), vehicle: saline with Tween-80 103 % of control | endpoint: mean survival time, dose: 400.0 mg/kg/injection, schedule: Q01DX009 (ip), vehicle: saline with Tween-80 96 % of control

CC(=O)Cc1ccc(C(=O)C(C)Cc2ccc(C(C)=O)cc2)cc1 (stereo unspecified)
inactive: [1] 90 % of control | [2] 110 % of control | [3] 92 % of control

COc1ccc(N=Cc2cccc(OC)c2O)cc1.COc1ccc(N=Cc2cccc(OC)c2O)cc1.[Co]
inactive: endpoint: mean survival time, dose: 50.0 mg/kg/injection, schedule: Q04DX003 (ip), vehicle: saline with Tween-80 92 % of control | [2] 92 % of control | [3] 95 % of control

CCOc1ccc(NC(=O)Nc2ccccc2Cl)cc1
inactive: endpoint: mean survival time, dose: 6.0 mg/kg/injection, schedule: Q01DX009 (ip), vehicle: Klucel (hydroxypropylcellulose) (HPC) 93 % of control | endpoint: mean survival time, dose: 12.0 mg/kg/injection, schedule: Q01DX009 (ip), vehicle: Klucel (hydroxypropylcellulose) (HPC) 88 % of control | endpoint: mean survival time, dose: 25.0 mg/kg/injection, schedule: Q01DX009 (ip), vehicle: Klucel (hydroxypropylcellulose) (HPC) 97 % of control | endpoint: mean survival time, dose: 25.0 mg/kg/injection, schedule: Q01DX009 (ip), vehicle: gum acacia 89 % of control | endpoint: mean survival time, dose: 200.0 mg/kg/injection, schedule: Q01DX009 (ip), vehicle: gum acacia 91 % of control | endpoint: mean survival time, dose: 200.0 mg/kg/injection, schedule: Q04DX003 (ip), vehicle: gum acacia 92 % of control | endpoint: mean survival time, dose: 400.0 mg/kg/injection, schedule: Q04DX003 (ip), vehicle: gum acacia 90 % of control

c1ccc2sc(SN3CCCCC3)nc2c1
inactive: endpoint: mean survival time, dose: 100.0 mg/kg/injection, schedule: Q01DX001 (ip), vehicle: Klucel (hydroxypropylcellulose) (HPC) 103 % of control | endpoint: mean survival time, dose: 200.0 mg/kg/injection, schedule: Q01DX001 (ip), vehicle: Klucel (hydroxypropylcellulose) (HPC) 97 % of control | endpoint: mean survival time, dose: 400.0 mg/kg/injection, schedule: Q01DX001 (ip), vehicle: Klucel (hydroxypropylcellulose) (HPC) 94 % of control

CCC(C#N)(c1ccccc1)c1ccccc1
inactive: [4] 96 % of control | [5] 98 % of control | [6] 94 % of control | [7] 94 % of control | [8] 94 % of control | [9] 98 % of control

F
inactive: endpoint: mean survival time, dose: 5.0 mg/kg/injection, schedule: Q01DX001 (ip), vehicle: saline 89 % of control | endpoint: mean survival time, dose: 10.0 mg/kg/injection, schedule: Q01DX001 (ip), vehicle: saline 97 % of control | endpoint: mean survival time, dose: 12.0 mg/kg/injection, schedule: Q01DX Z (ip), vehicle: saline 98 % of control | endpoint: mean survival time, dose: 20.0 mg/kg/injection, schedule: Q01DX001 (ip), vehicle: saline 103 % of control | endpoint: mean survival time, dose: 24.0 mg/kg/injection, schedule: Q01DX Z (ip), vehicle: saline 101 % of control | endpoint: mean survival time, dose: 40.0 mg/kg/injection, schedule: Q01DX001 (ip), vehicle: saline 97 % of control | endpoint: mean survival time, dose: 48.0 mg/kg/injection, schedule: Q01DX Z (ip), vehicle: saline 110 % of control | endpoint: mean survival time, dose: 62.0 mg/kg/injection, schedule: Q01DX Z (ip), vehicle: saline 92 % of control | endpoint: median survival time, dose: 5.0 mg/kg/injection, schedule: Q01DX009 (ip), vehicle: water 93 % of control | endpoint: median survival time, dose: 10.0 mg/kg/injection, schedule: Q01DX009 (ip), vehicle: water 100 % of control | endpoint: median survival time, dose: 20.0 mg/kg/injection, schedule: Q01DX009 (ip), vehicle: water 106 % of control | endpoint: median survival time, dose: 40.0 mg/kg/injection, schedule: Q01DX009 (ip), vehicle: water 106 % of control

COc1ccc2[nH]c3c(C)c4cc[n+](C)cc4c(C)c3c2c1
inactive: endpoint: mean survival time, dose: 6.25 mg/kg/injection, schedule: Q04DX003 (ip), vehicle: saline sonified 105 % of control | endpoint: mean survival time, dose: 10.0 mg/kg/injection, schedule: Q04DX003 (ip), vehicle: saline 115 % of control | endpoint: mean survival time, dose: 12.5 mg/kg/injection, schedule: Q04DX003 (ip), vehicle: saline sonified 122 % of control | endpoint: mean survival time, dose: 20.0 mg/kg/injection, schedule: Q04DX003 (ip), vehicle: saline 88 % of control

Cc1ccc2ccccc2c1N(CC(=O)O)S(=O)(=O)c1ccccc1
inactive: endpoint: mean survival time, dose: 100.0 mg/kg/injection, schedule: Q04DX003 (ip), vehicle: saline sonified 93 % of control | endpoint: mean survival time, dose: 200.0 mg/kg/injection, schedule: Q04DX003 (ip), vehicle: saline sonified 102 % of control | endpoint: mean survival time, dose: 400.0 mg/kg/injection, schedule: Q04DX003 (ip), vehicle: saline sonified 101 % of control

CC(=O)OC(C)CC1CCCCC12OCCO2 (stereo unspecified)
inactive: endpoint: mean survival time, dose: 50.0 mg/kg/injection, schedule: Q01DX001 (ip), vehicle: saline 103 % of control | [10] 108 % of control | [11] 100 % of control | [12] 108 % of control

O=C(/C=C/C(=O)Oc1ccccc1)Oc1ccccc1
inactive: [4] 88 % of control | [5] 107 % of control | [6] 91 % of control | [7] 107 % of control | [8] 98 % of control | [9] 98 % of control

O=C(CCl)NCCO
inactive: endpoint: mean survival time, dose: 100.0 mg/kg/injection, schedule: Q04DX003 (ip), vehicle: saline 108 % of control | endpoint: mean survival time, dose: 200.0 mg/kg/injection, schedule: Q04DX003 (ip), vehicle: saline 90 % of control | endpoint: mean survival time, dose: 400.0 mg/kg/injection, schedule: Q04DX003 (ip), vehicle: saline 104 % of control

ICc1ccnc2ccccc12
inactive: endpoint: mean survival time, dose: 100.0 mg/kg/injection, schedule: Q01DX001 (ip), vehicle: other 100 % of control | endpoint: mean survival time, dose: 200.0 mg/kg/injection, schedule: Q01DX001 (ip), vehicle: other 103 % of control | endpoint: mean survival time, dose: 400.0 mg/kg/injection, schedule: Q01DX001 (ip), vehicle: other 100 % of control

O=C(COc1ccc(Cl)c(Cl)c1)NCCc1cc[n+](Cc2ccc(S(=O)(=O)F)cc2)cc1
inactive: [1] 102 % of control | [2] 86 % of control

O=c1[nH]cnc2ncnn12
inactive: endpoint: mean survival time, dose: 100.0 mg/kg/injection, schedule: Q01DX001 (ip), vehicle: alkali diluted with saline 104 % of control | endpoint: mean survival time, dose: 200.0 mg/kg/injection, schedule: Q01DX001 (ip), vehicle: alkali diluted with saline 109 % of control | endpoint: mean survival time, dose: 400.0 mg/kg/injection, schedule: Q01DX001 (ip), vehicle: alkali diluted with saline 104 % of control

Cc1ccc(C)n1Cc1ccccc1
inactive: endpoint: mean survival time, dose: 100.0 mg/kg/injection, schedule: Q04DX003 (ip), vehicle: other 98 % of control | endpoint: mean survival time, dose: 200.0 mg/kg/injection, schedule: Q04DX003 (ip), vehicle: other 98 % of control | endpoint: mean survival time, dose: 400.0 mg/kg/injection, schedule: Q04DX003 (ip), vehicle: other 101 % of control

N#CC1(C(O)c2ccccc2)C=Cc2ccccc2N1C(=O)c1ccccc1 (stereo unspecified)
inactive: endpoint: mean survival time, dose: 100.0 mg/kg/injection, schedule: Q01DX001 (ip), vehicle: steriod suspending solution 98 % of control | endpoint: mean survival time, dose: 400.0 mg/kg/injection, schedule: Q01DX001 (ip), vehicle: steriod suspending solution 95 % of control

CCN(CC)CCCC(C)Nc1nc(/C=C/c2ccc(Cl)cc2)nc(Cl)c1-c1ccc(Cl)cc1 (stereo unspecified)
inactive: [10] 89 % of control | [5] 95 % of control | [11] 88 % of control | [7] 101 % of control | [12] 96 % of control | [9] 104 % of control

Reference: PubChem BioAssay AID248 (DTP/NCI, 2004)
